# Measured values published in US20240139220A1, “TREATMENT OF HPV INFECTION” (priority 2022, published 2024).
# What was measured:
# Type in all cases: physicochemical
# [1] = Polymorph screening by equilibration in solvents at 25° C. (XRPD)
# [2] = Bulk stability, accelerated storage for one week (HPLC, XRPD); conditions: for Stability after exposure to the three conditions: 25° C./92% RH open, 40° C./75% RH open, 60° C. tight container; for Stability after exposure to the three conditions / Degradation product increase: one week; for Bulk (XRPD) / Color / Purity, Bulk (HPLC): 1 week; for Initial HPLC purity: before storage
# Method: Bulk stability: Accelerated stability experiments were conducted at 25° C./92% RH and 40° C./75% RH in an open container, 60° C. in a tight container for one week.
# Samples were characterized by XRPD and HPLC and inspected for color change.
# Accelerated stability experiments were conducted at 25° C./92% RH in an open container, at 40° C./75% RH in an open container, and at 60° C. in a tight container for one week.
# [3] = Hygroscicity by Dynamic Vapor Sorption (DVS) at 25° C.; conditions: for Desorp. (%) Cycle 1 / Desorp. (%) Cycle 2 / Sorp. (%) Cycle 1 / Sorp. (%) Cycle 2 / Hygroscopicity / Water uptake: DVS 25° C.; for XRPD after DVS test: 25° C.; for Water uptake: up to 95% RH
# Method: Hygroscopicity was investigated by DVS at 25° C., using the following method: […]
# [4] = Solubility in buffers, water and simulated vaginal fluid at 37° C.
# Method: About 4 mg of Compound I Pattern 1 was added into 2 mL of buffer solution.
# (§1) Solubility was tested in five media, pH 3.0 citrate buffer, pH 4.5 acetate buffer, pH 6.8 phosphate buffer, water, simulated vaginal fluid (pH 4.2) at 37° C. for 0.5 h and 2 h.
# The salt amount used is equivalent to 10 mg anhydrous free base. […] The obtained clear solutions were analyzed by pH meter for pH, and solubility was determined by observation.
# as §1
# [5] = BS1: solid state, 25° C./92% RH, open container
# [6] = BS2: solid state, 40° C./75% RH, open container
# [7] = BS3: solid state, 60° C., tight container
# [8] = ES1: pH 3.0, 100 mM citrate buffer
# [9] = ES2: pH 4.5, 50 mM acetate buffer
# [10] = ES3: pH 6.8, 50 mM phosphate buffer
# [11] = ES5: Simulated vaginal fluid (pH adjusted by 0.1N NaOH)
compound,measurement,setting,value
CCOC(=O)C(C)NP(=O)(COCCn1cnc2c(OC)nc(N)nc21)OCc1ccccc1.O=C(O)C=CC(=O)O (stereo not shown) [Compound II Pattern 1],Crystal modification after 1 week equilibration (XRPD),[1]; PS1: IPA,Compound II Pattern 1
same,Crystal modification after 1 week equilibration (XRPD),[1]; PS2: Heptanes,Compound II Pattern 1
same,Crystal modification after 1 week equilibration (XRPD),[1]; PS3: Water,Compound II Pattern 1
same,Crystal modification after 1 week equilibration (XRPD),[1]; PS4: ACN,Compound II Pattern 2
same,Crystal modification after 1 week equilibration (XRPD),[1]; PS5: MEK,Compound II Pattern 3
same,Crystal modification after 1 week equilibration (XRPD),[1]; PS6: Acetone,Compound II Pattern 1
same,Crystal modification after 1 week equilibration (XRPD),"[1]; PS7: IPA/heptanes (3/10, v/v)",Compound II Pattern 1
same,Crystal modification after 1 week equilibration (XRPD),"[1]; PS8: water/ACN (2.9/97.1, v/v)",Compound II Pattern 2
same,Crystal modification after 1 week equilibration (XRPD),"[1]; PS9: IPA/MTBE (1/3, v/v)",Compound II Pattern 1
same,Crystal modification after 1 week equilibration (XRPD),"[1]; PS10: EA/toluene (1/3, v/v)",Compound II Pattern 1
same,Stability after exposure to the three conditions,[2],good physical and chemical stability
same,Bulk (XRPD),[2]; [5],No form change
same,Color,[2]; [5],No change
same,"Purity, Bulk (HPLC)",[2]; [5],99.5%
same,Bulk (XRPD),[2]; [6],No form change
same,Color,[2]; [6],No change
same,"Purity, Bulk (HPLC)",[2]; [6],99.4%
same,Bulk (XRPD),[2]; [7],No form change
same,Color,[2]; [7],No change
same,"Purity, Bulk (HPLC)",[2]; [7],99.7%
same,Initial HPLC purity,[2],99.7%
same,Desorp. (%) Cycle 1,[3]; 0% RH,0.03%
same,Desorp. (%) Cycle 2,[3]; 0% RH,0.03%
same,Sorp. (%) Cycle 1,[3]; 0% RH,0.03%
same,Sorp. (%) Cycle 2,[3]; 0% RH,0.03%
same,Desorp. (%) Cycle 1,[3]; 10% RH,0.05%
same,Desorp. (%) Cycle 2,[3]; 10% RH,0.05%
same,Sorp. (%) Cycle 1,[3]; 10% RH,0.04%
same,Sorp. (%) Cycle 2,[3]; 10% RH,0.04%
same,Desorp. (%) Cycle 1,[3]; 20% RH,0.08%
same,Desorp. (%) Cycle 2,[3]; 20% RH,0.07%
same,Sorp. (%) Cycle 1,[3]; 20% RH,0.06%
same,Sorp. (%) Cycle 2,[3]; 20% RH,0.06%
same,Desorp. (%) Cycle 1,[3]; 30% RH,0.10%
same,Desorp. (%) Cycle 2,[3]; 30% RH,0.08%
same,Sorp. (%) Cycle 1,[3]; 30% RH,0.08%
same,Sorp. (%) Cycle 2,[3]; 30% RH,0.07%
same,Desorp. (%) Cycle 1,[3]; 40% RH,0.17%
same,Desorp. (%) Cycle 2,[3]; 40% RH,0.10%
same,Sorp. (%) Cycle 1,[3]; 40% RH,0.10%
same,Sorp. (%) Cycle 2,[3]; 40% RH,0.09%
same,XRPD after DVS test,[3]; 40-0-95-0-40% RH,No form change
same,Desorp. (%) Cycle 2,[3]; 50% RH,0.12%
same,Sorp. (%) Cycle 1,[3]; 50% RH,0.12%
same,Desorp. (%) Cycle 2,[3]; 60% RH,0.14%
same,Sorp. (%) Cycle 1,[3]; 60% RH,0.13%
same,Desorp. (%) Cycle 2,[3]; 70% RH,0.18%
same,Sorp. (%) Cycle 1,[3]; 70% RH,0.16%
same,Desorp. (%) Cycle 2,[3]; 80% RH,0.21%
same,Sorp. (%) Cycle 1,[3]; 80% RH,0.19%
same,Desorp. (%) Cycle 2,[3]; 90% RH,0.24%
same,Sorp. (%) Cycle 1,[3]; 90% RH,0.23%
same,Desorp. (%) Cycle 2,[3]; 95% RH,0.24%
same,Sorp. (%) Cycle 1,[3]; 95% RH,0.24%
same,Hygroscopicity,[3],slightly hygroscopic
same,XRPD after DVS test,[3]; cycle 40-0-95-0-40% RH,No form change
same,Water uptake,[3],about 0.2%
same,Solubility 0.5 hours,[4]; [8],>2000 µg/mL
same,Solubility 2 hours,[4]; [8],> 2000 µg/mL
same,"pH of solution, 2 hours",[4]; [8],2.85
same,Solubility 0.5 hours,[4]; [9],>2000 µg/mL
same,Solubility 2 hours,[4]; [9],> 2000 µg/mL
same,"pH of solution, 2 hours",[4]; [9],4.2
same,Solubility 0.5 hours,[4]; [10],>2000 µg/mL
same,Solubility 2 hours,[4]; [10],> 2000 µg/mL
same,"pH of solution, 2 hours",[4]; [10],6.47
same,Solubility 0.5 hours,[4]; ES4: Water,>2000 µg/mL
same,Solubility 2 hours,[4]; ES4: Water,> 2000 µg/mL
same,"pH of solution, 2 hours",[4]; ES4: Water,2.87
same,Solubility 0.5 hours,[4]; [11],>2000 µg/mL
same,Solubility 2 hours,[4]; [11],> 2000 µg/mL
same,"pH of solution, 2 hours",[4]; [11],5.79
CCOC(=O)C(C)NP(=O)(COCCn1cnc2c(OC)nc(N)nc21)OCc1ccccc1.O=C(O)C=CC(=O)O (stereo not shown) [Compound III Pattern 2],Crystal modification after 1 week equilibration (XRPD),[1]; PS1: IPA,Compound V Pattern 2
same,Crystal modification after 1 week equilibration (XRPD),[1]; PS2: Heptanes,Compound III Pattern 2
same,Crystal modification after 1 week equilibration (XRPD),[1]; PS3: Water,Compound III Pattern 3
same,Crystal modification after 1 week equilibration (XRPD),[1]; PS4: ACN,Compound III Pattern 4
same,Crystal modification after 1 week equilibration (XRPD),[1]; PS5: MEK,Compound III Pattern 5
same,Crystal modification after 1 week equilibration (XRPD),"[1]; PS7: IPA/heptanes (3/10, v/v)",Compound III Pattern 2
same,Crystal modification after 1 week equilibration (XRPD),"[1]; PS8: water/ACN (2.9/97.1, v/v)",Compound III Pattern 4
same,Crystal modification after 1 week equilibration (XRPD),"[1]; PS9: IPA/MTBE (1/3, v/v)",Compound III Pattern 6
same,Crystal modification after 1 week equilibration (XRPD),"[1]; PS10: EA/toluene (1/3, v/v)",Compound III Pattern 2
same,Stability after exposure to the three conditions,[2],good physical stability
same,Degradation product increase,[2]; 40° C./75% RH in an open container,1.6%
same,Degradation product increase,[2]; 60° C. in a tight container,1.5%
same,Bulk (XRPD),[2]; [5],No form change
same,Color,[2]; [5],No change
same,"Purity, Bulk (HPLC)",[2]; [5],98.7%
same,Bulk (XRPD),[2]; [6],No form change (One
same,Color,[2]; [6],No change
same,"Purity, Bulk (HPLC)",[2]; [6],97.2%
same,Bulk (XRPD),[2]; [7],No form change (One
same,Color,[2]; [7],No change
same,"Purity, Bulk (HPLC)",[2]; [7],97.3%
same,Initial HPLC purity,[2],98.8%
same,Desorp. (%) Cycle 1,[3]; 0% RH,0.00%
same,Desorp. (%) Cycle 2,[3]; 0% RH,0.00%
same,Sorp. (%) Cycle 1,[3]; 0% RH,0.00%
same,Sorp. (%) Cycle 2,[3]; 0% RH,0.00%
same,Desorp. (%) Cycle 1,[3]; 10% RH,0.07%
same,Desorp. (%) Cycle 2,[3]; 10% RH,0.07%
same,Sorp. (%) Cycle 1,[3]; 10% RH,0.07%
same,Sorp. (%) Cycle 2,[3]; 10% RH,0.07%
same,Desorp. (%) Cycle 1,[3]; 20% RH,0.15%
same,Desorp. (%) Cycle 2,[3]; 20% RH,0.15%
same,Sorp. (%) Cycle 1,[3]; 20% RH,0.14%
same,Sorp. (%) Cycle 2,[3]; 20% RH,0.14%
same,Desorp. (%) Cycle 1,[3]; 30% RH,0.23%
same,Desorp. (%) Cycle 2,[3]; 30% RH,0.23%
same,Sorp. (%) Cycle 1,[3]; 30% RH,0.22%
same,Sorp. (%) Cycle 2,[3]; 30% RH,0.22%
same,Desorp. (%) Cycle 1,[3]; 40% RH,0.30%
same,Desorp. (%) Cycle 2,[3]; 40% RH,0.32%
same,Sorp. (%) Cycle 1,[3]; 40% RH,0.29%
same,Sorp. (%) Cycle 2,[3]; 40% RH,0.30%
same,XRPD after DVS test,[3]; 40-0-95-0-40% RH,No form change
same,Desorp. (%) Cycle 2,[3]; 50% RH,0.41%
same,Sorp. (%) Cycle 1,[3]; 50% RH,0.39%
same,Desorp. (%) Cycle 2,[3]; 60% RH,0.52%
same,Sorp. (%) Cycle 1,[3]; 60% RH,0.47%
same,Desorp. (%) Cycle 2,[3]; 70% RH,0.67%
same,Sorp. (%) Cycle 1,[3]; 70% RH,0.59%
same,Desorp. (%) Cycle 2,[3]; 80% RH,0.81%
same,Sorp. (%) Cycle 1,[3]; 80% RH,0.71%
same,Desorp. (%) Cycle 2,[3]; 90% RH,0.97%
same,Sorp. (%) Cycle 1,[3]; 90% RH,0.92%
same,Desorp. (%) Cycle 2,[3]; 95% RH,1.01%
same,Sorp. (%) Cycle 1,[3]; 95% RH,1.01%
same,Hygroscopicity,[3],slightly hygroscopic
same,XRPD after DVS test,[3]; cycle 40-0-95-0-40% RH,No form change
same,Water uptake,[3],about 1.0%
same,Solubility 0.5 hours,[4]; [8],>2000 µg/mL
same,Solubility 2 hours,[4]; [8],> 2000 µg/mL
same,"pH of solution, 2 hours",[4]; [8],2.83
same,Solubility 0.5 hours,[4]; [9],>2000 µg/mL
same,Solubility 2 hours,[4]; [9],> 2000 µg/mL
same,"pH of solution, 2 hours",[4]; [9],4.12
same,Solubility 0.5 hours,[4]; [10],>2000 µg/mL
same,Solubility 2 hours,[4]; [10],> 2000 µg/mL
same,"pH of solution, 2 hours",[4]; [10],6.44
same,Solubility 0.5 hours,[4]; ES4: Water,>2000 µg/mL
same,Solubility 2 hours,[4]; ES4: Water,> 2000 µg/mL
same,"pH of solution, 2 hours",[4]; ES4: Water,2.78
same,Solubility 0.5 hours,[4]; [11],>2000 µg/mL
same,Solubility 2 hours,[4]; [11],> 2000 µg/mL
same,"pH of solution, 2 hours",[4]; [11],5.37
